# Read-outs that look alike come from different tables or passages of the source.
# Key:
# [1] = tested on: patients with advanced solid tumors; experiment: Phase Ib dose finding: dose-limiting toxicities and MTD of alpelisib QD plus paclitaxel; assay type: in vivo, human; conditions: with paclitaxel 80 mg/m^2 QW; BLRM with EWOC
# Description: In the dose-finding phase, the primary objective was to determine the MTD and/or recommended Phase II dose (RP2D) of alpelisib QD when administered with paclitaxel 80 mg/m^2 QW in patients with advanced solid tumors, and the secondary objectives were to assess safety and tolerability and to characterize the pharmacokinetic (PK) profile.
# Patients received oral alpelisib QD in 28-day cycles (300, 250, or 150 mg) and paclitaxel 80 mg/m^2 QW as a 1-hour (±15 minutes) IV infusion after standard premedication (per local standard practice). Patients received treatment until disease progression, unacceptable toxicity, patient decision, death, or discontinuation for any other reason. […]
# An adaptive 5-parameter Bayesian logistic regression model (BLRM) with escalation with overdose control (EWOC) guided the dose-finding of each combination. […] Available data were analyzed after Cycle 1 per cohort of patients to decide the dose for the next cohort and/or determine the MTD/RP2D. […]
# [2] = tested on: patients with advanced solid tumors; assay type: in vivo
# Description: Patients received oral alpelisib QD in 28-day cycles (300, 250, or 150 mg) and paclitaxel 80 mg/m^2 QW as a 1-hour (±15 minutes) IV infusion after standard premedication (per local standard practice). Patients received treatment until disease progression, unacceptable toxicity, patient decision, death, or discontinuation for any other reason.
# (§1) PK samples for alpelisib were collected from all patients.
# (§2) Analysis sets were as follows: full analysis set (FAS), all patients who received at least one dose of alpelisib and/or paclitaxel; safety set, all patients who received at least one dose of alpelisib and/or paclitaxel and had at least one valid post-baseline safety assessment; dose-determining set (DDS), all patients from the safety set who during Cycle 1 either met the minimum exposure criterion and had sufficient safety evaluations, or experienced a DLT; and pharmacokinetic analysis set, all patients in the FAS who received at least one dose of alpelisib and/or paclitaxel and had at least one evaluable concentration measurement.
# [3] = Plasma pharmacokinetics of paclitaxel and alpelisib in Cycle 1; assay type: in vivo, human; conditions: for Tmax / AUC(0-t) / Cmax / AUC(0-inf): human, plasma; for AUC(0-t): read-out: AUC0–24, geometric mean (CV%); for Cmax: read-out: Cmax, geometric mean (CV%); for AUC(0-inf): read-out: AUCinf, geometric mean (CV%)
# Source text: as §1, §2
# [4] = tested on: patients with advanced solid tumors; conditions: cited from earlier work
# patients [5] = conditions: cited from earlier work
# patients [6] = tested on: patients; parameters: method as in PMID 22184370; conditions: paclitaxel 80 mg/m^2 QW, 1-hour IV infusion; cited from earlier work
# [7] = alpelisib 150 mg plus paclitaxel
# [8] = alpelisib 250 mg plus paclitaxel
# [9] = alpelisib 300 mg plus paclitaxel
# [10] = po, oral alpelisib 150 mg QD + paclitaxel, C1D8
# [11] = po, oral alpelisib 250 mg QD + paclitaxel, C1D8
# [12] = po, oral alpelisib 300 mg QD + paclitaxel, C1D8
# [13] = iv, 80 mg/m^2, paclitaxel 80 mg/m^2 IV, C1D1, alpelisib 150 mg + paclitaxel cohort
# [14] = iv, 80 mg/m^2, paclitaxel 80 mg/m^2 IV, C1D1, alpelisib 250 mg + paclitaxel cohort
# [15] = iv, paclitaxel 80 mg/m^2 IV, C1D8, alpelisib 150 mg + paclitaxel cohort
# [16] = paclitaxel 80 mg/m^2 IV, C1D1, alpelisib 300 mg + paclitaxel cohort
# [17] = paclitaxel 80 mg/m^2 IV, C1D8, alpelisib 250 mg + paclitaxel cohort
compound,measurement,setting,value
Cc1nc(NC(=O)N2CCC[C@H]2C(N)=O)sc1-c1ccnc(C(C)(C)C(F)(F)F)c1 [alpelisib],MTD of alpelisib when administered with paclitaxel,[1],150 mg QD
same,rate of alpelisib dose interruption,[2]; [7],66.7%
same,rate of alpelisib dose reduction (at least one),[2]; [7],22.2%
same,rate of alpelisib dose interruption,[2]; [8],75.0%
same,rate of alpelisib dose reduction (at least one),[2]; [8],50.0%
same,rate of alpelisib dose interruption,[2]; [9],66.7%
same,rate of alpelisib dose reduction (at least one),[2]; [9],66.7%
same,impact of steady-state alpelisib exposure on paclitaxel metabolism,[3]; alpelisib 150–300 mg,no impact
same,Cmax and AUC0-24 after oral administration versus dose,[3]; alpelisib 150–300 mg QD,increased in a dose-dependent manner
same,Tmax,"[3]; oral, Cycle 1 Day 8, alpelisib 150–300 mg, read-out: Median time to maximum concentration (Tmax) across dose levels",3.17 to 4.17 h
same,AUC(0-t),[3]; [10],13800 ng·h/mL
same,Cmax,[3]; [10],1390 ng/mL
same,Tmax,"[3]; po, oral alpelisib 150 mg QD + paclitaxel, C1D8, read-out: Tmax, median (range)",3.17 h
same,AUC(0-t),[3]; [11],27700 ng·h/mL
same,Cmax,[3]; [11],3750 ng/mL
same,Tmax,"[3]; po, oral alpelisib 250 mg QD + paclitaxel, C1D8, read-out: Tmax, median (range)",3.23 h
same,AUC(0-t),[3]; [12],37100 ng·h/mL
same,Cmax,[3]; [12],3000 ng/mL
same,Tmax,"[3]; po, oral alpelisib 300 mg QD + paclitaxel, C1D8, read-out: Tmax, median (range)",4.17 h
same,Grade 3/4 AE: hyperglycemia,"[4]; single-agent alpelisib 30–450 mg QD or 120–200 mg twice daily, N=134",23.9%
same,all-grade treatment-related AE: hyperglycemia,"[4]; single-agent alpelisib, N=134",51.5%
same,"maximum tolerated dose (MTD), single agent","[4]; single-agent alpelisib, advanced solid tumors",400 mg once daily (QD)
same,hyperglycemia DLT during dose finding,"[4]; single-agent alpelisib, seven of 68 evaluable patients",10.3%
same,dose from which preliminary anti-tumor activity was exhibited,"[4]; single-agent alpelisib, solid tumors",≥ 270 mg QD
same,all-grade treatment-related AE: decreased appetite,[4]; single-agent alpelisib,41.8%
same,all-grade treatment-related AE: diarrhea,[4]; single-agent alpelisib,40.3%
same,all-grade treatment-related AE: nausea,[4]; single-agent alpelisib,50.0%
same,all-grade treatment-related AE: vomiting,[4]; single-agent alpelisib,31.3%
same,MTD of alpelisib with nab-paclitaxel,patients [5]; Phase I study (N=10),not reached
same,"recommended Phase II dose, alpelisib",patients [5]; plus nab-paclitaxel 100 mg/m^2 IV weekly,350 mg daily
CC(=O)O[C@H]1C(=O)[C@@]2(C)[C@H]([C@H](OC(=O)c3ccccc3)[C@]3(O)C[C@H](OC(=O)[C@H](O)[C@@H](NC(=O)c4ccccc4)c4ccccc4)C(C)=C1C3(C)C)[C@]1(OC(C)=O)CO[C@@H]1C[C@@H]2O [paclitaxel],"plasma drug exposure (AUCinf and Cmax), Cycle 1 Day 1 versus Cycle 1 Day 8","[3]; absence versus presence of alpelisib, except Cmax at alpelisib 300 mg C1D8",comparable
same,AUC(0-inf),[3]; [13],4360 ng·h/mL
same,Cmax,[3]; [13],2650 ng/mL
same,AUC(0-inf),[3]; [14],4320 ng·h/mL
same,Cmax,[3]; [14],2770 ng/mL
same,Cmax,"[3]; iv, 80 mg/m^2, paclitaxel 80 mg/m^2 IV, C1D1, alpelisib 300 mg + paclitaxel cohort",2700 ng/mL
same,AUC(0-inf),[3]; [15],4370 ng·h/mL
same,Cmax,[3]; [15],2790 ng/mL
same,Cmax,"[3]; iv, paclitaxel 80 mg/m^2 IV, C1D8, alpelisib 250 mg + paclitaxel cohort",2960 ng/mL
same,AUC(0-inf),"[3]; iv, paclitaxel 80 mg/m^2 IV, C1D8, alpelisib 300 mg + paclitaxel cohort",4470 ng·h/mL
same,Tmax,"[3]; iv, paclitaxel 80 mg/m^2 IV, C1D8, alpelisib 300 mg + paclitaxel cohort, read-out: Tmax, median (range)",0.75 h
same,"Tmax, median (range)","[3]; paclitaxel 80 mg/m^2 IV, C1D1, alpelisib 150 mg + paclitaxel cohort",1 (0.87–1.17) [8] hours
same,"Tmax, median (range)","[3]; paclitaxel 80 mg/m^2 IV, C1D1, alpelisib 250 mg + paclitaxel cohort",1 (0.45–1.05) [3] hours
same,"AUCinf, geometric mean (CV%)",[3]; [16],5000 (24) [5] ng·hr/ml
same,"Tmax, median (range)",[3]; [16],1 (0.5–1.28) [5] hours
same,"Tmax, median (range)","[3]; paclitaxel 80 mg/m^2 IV, C1D8, alpelisib 150 mg + paclitaxel cohort",1 (0.5–1.07) [9] hours
same,"AUCinf, geometric mean (CV%)",[3]; [17],5000 (42.7) [2] ng·hr/ml
same,"Tmax, median (range)",[3]; [17],0.8 (0.5–1.17) [3] hours
same,"Cmax, geometric mean (CV%)","[3]; paclitaxel 80 mg/m^2 IV, C1D8, alpelisib 300 mg + paclitaxel cohort",1250 (114) [6] ng/ml
same,all-grade AE: abdominal pain,patients [6],33%
same,all-grade AE: alopecia,patients [6],36%
same,all-grade AE: fatigue,patients [6],47%
same,all-grade AE: nausea,patients [6],31%
same,all-grade AE: peripheral neuropathy,patients [6],31%
